From US20240025886A1, “INHIBITORS OF IGF2BP1-RNA BINDING” (YISSUM RESEARCH DEVELOPMENT COMPANY OF THE HEBREW …, priority 2020, published 2024)
pKd: −log10 of the molar value.

Columns and labels:
[1] = target: La (Homo sapiens, UniProt P05455); test: MST binding to control RNA binding protein La
[2] = target: T1, Igf2bp1 KH34 di-domain (Homo sapiens, UniProt Q9NZI8); test: MST binding to Igf2bp1 di-domain KH34
T1 construct: KH34 (P387-A574); 6xHis (N, cleaved yes); made in house; host or cells: E. coli BL21(DE3)
Experimental: (§1) Recombinant full-length Igf2bp1 protein was labelled with RED-tris-NTA dye using a Monolith NT His-Tag Labelling Kit (NanoTemper) while RRM12, KH12 and KH34 di-domain peptides were labelled using the Protein Labeling Kit RED NHS 2nd generation (NanoTemper). Labelled proteins were spun at 15,000 g for 5 min to eliminate aggregates. All samples were 2× labelled protein mix of Igf2bp1 (200 nM) in PBST and were combined (1:1) with serial dilutions of compound or Kras6 RNA in binding buffer (10 mMTris pH=7.5, 100 mM NaCl, 0.1 mM EDTA, 0.06% IPEGAL, 0.02 μg/μL tRNA, 2 mM DTT, 0.1 μg/μL heparin) in final volume of 20 μL, room temperature for 15 min. Samples were then loaded into standard capillaries (NanoTemper) and read in the Monolith NT.115 scanner (NanoTemper) using the red filter with reading conditions of 95% LED power and 40% MST power, 5 sec fluorescence before, 30 sec MST on, 5 sec fluorescence after and 25 sec delay between samples. Results were analyzed using the MO Control software (NanoTemper) for curve fitting to KD.

[3] = test system: H1299 cells; test: Cell proliferation assay (Incucyte), H1299 cells; format: cell-based, human; conditions: H1299, up to 20 mM 7773
Experimental: (§2) ES2, H1299 and HEK293 cells were seeded in a 96 well plate (5×10^3 cells per well) for 24 hours before adding the compound at increasing concentrations. After an additional 24 hours, the plate was incubated in an IncuCyte® S3 Live-Cell Analysis System (Essen BioScience). The wells were filmed for 72 hours, and then analyzed for proliferation rate Using IncuCyte® S3 Live-Cell Analysis System (Essen BioScience)

[4] = target: T2, Igf2bp2 (Homo sapiens, UniProt Q9Y6M1); test: MST binding to Igf2bp2; conditions: even at concentrations that almost saturate binding to Igf2bp1
T2 construct: His tag (C); made in house; host or cells: E. coli BL21(DE3)

[5] = target: T3, Igf2bp1 KH12 di-domain (Homo sapiens, UniProt Q9NZI8); test: MST binding to Igf2bp1 di-domain KH12
T3 construct: KH12 (V194-N369); 6xHis/GST (N, cleaved yes); made in house; host or cells: E. coli BL21(DE3)
Experimental: as §1

[6] = test system: H1299 cells; test: Growth in soft agar, H1299 cells; format: cell-based, human; design: dose or concentration left out as unconfirmed; conditions: H1299, 7773
Experimental: Cells were grown for 12 hours in 6 well plates prior to incubation with the compound or DMSO for an additional 48 hours, 2000 cells were suspended in 0.3% agar-complete medium and then seeded in triplicates onto a 0.6% agar-complete medium base in a 6 well plate. After one week, the colonies were fed with 0.3% agar-complete medium, and after 2 additional weeks, imaged and quantified.

[7] = test system: LKR-M cells transfected with full length human Igf2bp1-GFP; test: Wound healing assay, LKR-M cells expressing human Igf2bp1-GFP; format: cell-based, mouse; design: dose or concentration left out as unconfirmed; conditions: 7773 vs DMSO
Experimental: (§3) Cells were seeded in 96 IncuCyte® ImageLock plates (20×10^3 cells per well) for 24 hours, to a near confluency of 95%, before the addition of increasing concentrations of compound. After a further 24 hours, wells were scratched using the IncuCyte® 96-well WoundMaker Tool, and the cells cultured for an additional 48 hours using the IncuCyte® S3 Live-Cell Analysis System (Essen BioScience). The plate was imaged at increments of 120 minutes for a period of 48 hours, and then analyzed for relative wound healing.

[8] = test system: H1299 cells; test: Real-time PCR of steady state RNA levels in H1299 cells; format: cell-based, human
Experimental: (§4) Primers were calibrated for several Igf2bp1 RNA targets (Table 3): […]
(§5) Cells were grown for 12 hours in 12 well plates prior to incubation with the compound at different concentrations for an additional 12 or 24 hours. Total RNA was then extracted using EZ-RNA total RNA isolation kit (Biological Industries) and cDNA prepared from the RNA using the First Strand cDNA Synthesis kit (Quanta bio). Real time PCR was performed with Fast SYBR Green Master Mix (Thermo Fisher Scientific), and cDNA expression analyzed with the Bio-Rad CFX Manager 3.1.

[9] = test system: control luciferase in RKO cells; test: Control (wild type) luciferase in RKO cells; format: cell-based; conditions: 50 mM 7773
Experimental: The RKO cells were seeded in DMEM with 10% calf serum 24 hrs prior to the transfection. Transfection was done using Lipofectamine 2000 with reporter plasmids and Renilla-luciferase expressing vector (as internal control). After 24 hrs, cells were lysed using passive lysis buffer (Promega catalog #E1941). The lysates were cleared by centrifugation and its […] volume was mixed with […] of luciferase substrate solution for luminescence recording which was followed by addition of […] of Stop-glo solution (Promega catalog #E1910) with an additional luminescence reading. Both readings were detected by using GloMax 20/20 Luminometer (Promega), and the final value for each sample was the ratio of their two respective readings. To test the effects of 7773, transfected cells with reporter plasmids were washed with PBS after 24 hrs of transfection and incubated with medium containing 7773.

[10] = test system: LKR-M cells transfected with GFP alone; test: Wound healing assay, LKR-M cells expressing GFP alone; format: cell-based, mouse; conditions: 20 mM 7773 vs DMSO
Experimental: as §3

[11] = target: T4, Igf2bp1 (Homo sapiens, UniProt Q9NZI8); test: Microscale thermophoresis (MST) binding to full-length Igf2bp1; conditions: full-length protein, unit printed μM
T4 construct: Recombinant full-length Igf2bp1 protein; made in house; host or cells: E. coli BL21(DE3)
Experimental: as §1

[12] = target: T5, Igf2bp1 RRM12 di-domain (Homo sapiens, UniProt Q9NZI8); test: MST binding to Igf2bp1 di-domain RRM12
T5 construct: RRM12 (M1-P188); 6xHis (N, cleaved yes); made in house; host or cells: E. coli BL21(DE3)
Experimental: as §1

[13] = test system: ES2 cells; test: Wound healing (cell migration) assay, ES2 cells; format: cell-based, human
Experimental: as §3

[14] = test system: cMyc mRNA; test: cMyc mRNA levels in different cell lines; format: cell-based
Experimental: as §4, §5

[15] = test system: ES2 cells; test: Cell proliferation assay (Incucyte), ES2 cells; format: cell-based, human; design: dose or concentration left out as unconfirmed; conditions: ES2, up
Experimental: as §2

[16] = test system: HEK293 cells; test: Cell proliferation assay (Incucyte), HEK293 cells; format: cell-based, human; design: dose or concentration left out as unconfirmed; conditions: HEK293, 7773
Experimental: as §2

T4 sequence (Q9NZI8 whole entry): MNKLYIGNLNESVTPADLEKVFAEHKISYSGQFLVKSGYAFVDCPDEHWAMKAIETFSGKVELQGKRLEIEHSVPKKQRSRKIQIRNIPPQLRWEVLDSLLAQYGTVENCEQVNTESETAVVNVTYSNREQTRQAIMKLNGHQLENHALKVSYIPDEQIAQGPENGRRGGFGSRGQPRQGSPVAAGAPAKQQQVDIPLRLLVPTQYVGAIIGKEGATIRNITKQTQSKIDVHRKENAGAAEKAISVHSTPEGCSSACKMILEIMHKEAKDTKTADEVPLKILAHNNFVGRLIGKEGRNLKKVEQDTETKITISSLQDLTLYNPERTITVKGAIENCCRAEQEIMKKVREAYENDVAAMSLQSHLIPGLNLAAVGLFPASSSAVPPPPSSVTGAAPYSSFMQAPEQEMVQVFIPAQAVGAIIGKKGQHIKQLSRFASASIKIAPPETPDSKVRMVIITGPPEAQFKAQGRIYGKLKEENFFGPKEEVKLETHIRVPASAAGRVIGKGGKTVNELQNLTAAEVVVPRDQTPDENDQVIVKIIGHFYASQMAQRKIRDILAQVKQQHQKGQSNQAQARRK
T5 sequence (Q9NZI8 1-188): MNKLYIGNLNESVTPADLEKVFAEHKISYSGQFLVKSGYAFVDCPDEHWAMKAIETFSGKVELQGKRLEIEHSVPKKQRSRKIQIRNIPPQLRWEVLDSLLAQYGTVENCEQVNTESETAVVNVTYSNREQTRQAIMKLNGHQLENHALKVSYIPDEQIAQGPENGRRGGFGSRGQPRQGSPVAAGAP
T3 sequence (Q9NZI8 194-369): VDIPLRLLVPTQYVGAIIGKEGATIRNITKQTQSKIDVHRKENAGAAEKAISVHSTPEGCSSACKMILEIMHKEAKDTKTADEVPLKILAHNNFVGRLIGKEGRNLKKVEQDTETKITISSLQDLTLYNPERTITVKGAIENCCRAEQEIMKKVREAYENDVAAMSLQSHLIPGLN
T1 sequence (Q9NZI8 387-574): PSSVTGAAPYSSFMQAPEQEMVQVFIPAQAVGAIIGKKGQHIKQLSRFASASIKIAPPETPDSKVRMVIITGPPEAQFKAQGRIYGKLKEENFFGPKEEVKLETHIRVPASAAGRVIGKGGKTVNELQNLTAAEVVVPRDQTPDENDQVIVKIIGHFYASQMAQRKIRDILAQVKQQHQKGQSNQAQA
Sequence of La (P05455 whole entry): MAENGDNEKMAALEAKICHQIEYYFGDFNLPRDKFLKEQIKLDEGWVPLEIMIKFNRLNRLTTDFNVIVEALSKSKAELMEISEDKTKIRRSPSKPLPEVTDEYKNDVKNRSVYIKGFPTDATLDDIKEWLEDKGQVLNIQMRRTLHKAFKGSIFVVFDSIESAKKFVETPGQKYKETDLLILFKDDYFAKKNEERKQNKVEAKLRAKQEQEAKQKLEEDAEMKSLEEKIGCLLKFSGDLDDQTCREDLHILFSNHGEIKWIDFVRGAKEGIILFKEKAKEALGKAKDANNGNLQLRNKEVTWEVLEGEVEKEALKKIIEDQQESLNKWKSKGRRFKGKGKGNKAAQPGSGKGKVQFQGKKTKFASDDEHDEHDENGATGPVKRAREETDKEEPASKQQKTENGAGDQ
T2 sequence (Q9Y6M1 whole entry, species assumed): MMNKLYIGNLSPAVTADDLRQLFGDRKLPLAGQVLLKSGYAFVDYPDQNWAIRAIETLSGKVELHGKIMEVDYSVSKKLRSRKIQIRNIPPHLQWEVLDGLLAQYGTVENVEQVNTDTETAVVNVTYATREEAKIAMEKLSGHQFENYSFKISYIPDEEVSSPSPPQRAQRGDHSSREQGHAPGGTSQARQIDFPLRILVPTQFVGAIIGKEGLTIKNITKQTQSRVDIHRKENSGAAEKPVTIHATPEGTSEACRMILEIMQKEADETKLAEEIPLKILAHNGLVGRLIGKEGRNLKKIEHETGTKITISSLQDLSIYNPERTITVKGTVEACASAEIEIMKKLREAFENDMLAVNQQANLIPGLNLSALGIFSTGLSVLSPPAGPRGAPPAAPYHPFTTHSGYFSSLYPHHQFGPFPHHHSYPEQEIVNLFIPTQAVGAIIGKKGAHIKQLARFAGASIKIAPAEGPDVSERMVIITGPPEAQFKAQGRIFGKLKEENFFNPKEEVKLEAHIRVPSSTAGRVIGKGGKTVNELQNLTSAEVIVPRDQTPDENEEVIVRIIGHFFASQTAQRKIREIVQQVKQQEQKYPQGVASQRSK

- Binding to La (MST) [1]: no binding
- pKd [2]: 5.14
- Binding to Igf2bp2 (MST) [4]: did not significantly bind
- Binding to KH12 (MST) [5]: no binding
- Kd [11]: 17 µM
- pKd [12]: 5.82
Compound: O=C(c1ccc(Cn2cnnn2)cc1)N1CCCC(Nc2ccc3c(c2)OCO3)C1 (stereo not shown) [Compound 7773]
- Cell proliferation [3]: remarkably unaffected
- Ability to form colonies in soft agar [6]: dramatically inhibited
- Inhibition of Igf2bp1-GFP enhanced wound healing [7]: significantly inhibited
- Steady state level of Kras mRNA ([8]; H1299, 20 mM 7773, 12 hours): already reduced
- Steady state levels of CD44, Kras, cMyc and SRF RNA ([8]; H1299, 20 mM 7773, 24 hours): significantly reduced
- Steady state levels of control RNAs (not targets of Igf2bp1) ([8]; H1299, 20 mM 7773, 24 hours): not significantly affected
- Activity of wild type luciferase [9]: did not affect
- Effect on migration of cells expressing GFP alone [10]: unaffected
- Inhibition of wound healing ([13]; ES2, 5 mM 7773): discernible inhibition
- Inhibition of wound healing ([13]; ES2, 20 mM 7773): strongly inhibited
- Reduction of cMyc mRNA levels [14]: 50-60%
- Cell proliferation [15]: remarkably unaffected
- Cell proliferation [16]: remarkably unaffected
